{"source": "patent US10799478B2", "about": "“Treatment of androgen deprivation therapy associated symptoms” (priority 2014, dated 2020)", "key": {"[1]": {"system": "healthy human volunteers", "experiment": "Phase Ib Study of Healthy Volunteers", "type": "in vivo", "conditions": "males"}, "[2]": {"system": "healthy volunteers", "experiment": "Treatment of healthy volunteers (12 weeks)", "type": "in vivo, human", "conditions": "after 12 weeks in healthy volunteers"}, "[3]": {"experiment": "52 Week Toxicity and Toxicokinetic Study in Dogs", "type": "in vivo, dog", "conditions": "beagle, dog, in vivo; for Cmax / AUC(0-t): po", "protocol": "(§1) Male and female purebred beagle dogs are assigned to groups, and doses are administered according to Table 9 via oral capsules containing 1 ml/kg of 0 [1% (w/v) carboxymethylcellulose sodium (low viscosity/25-50 cps), 0.5% (w/v) sodium lauryl sulfate and 0.05% (v/v) Dow Corning® Antifoam 1510-US in reverse osmosis water] […] All animals receive the same number of capsules, and Group 1 animals receive capsules containing vehicle control article only. Three animals per sex from Groups 1 and 4 are designated as recovery animals.\n(§2) Assessment of toxicity is based on mortality, clinical signs, body weight and body weight change, food consumption, ophthalmic and neurologic evaluations, ECG measurements, hormone analysis (testosterone, progesterone, luteinizing hormone, and follicle stimulating hormone), semen evaluation (ejaculate volume and sperm number, density, morphology, and motility), and clinical and anatomic pathology. Blood samples are collected for exploratory metabolite analysis and toxicokinetic evaluations."}, "[4]": {"system": "beagle dogs", "experiment": "52 Week Toxicity and Toxicokinetic Study in Dogs", "type": "in vivo, dog", "protocol": "as §1, §2"}, "[5]": {"experiment": "Allometric prediction of human clearance, bioavailability and dose"}, "[6]": {"system": "male rats", "experiment": "Male Fertility and Toxicokinetic Study in Rats", "type": "in vivo, rat", "protocol": "The purpose of this study is to determine the potential adverse effects in the reproductive process resulting from treatment of male rats prior to, and during, the mating period. This includes identification of functional reproductive effects in the male.\nMale rats (20/group) are treated daily for 10 weeks prior to mating, throughout the 3-week mating period, and continuing through the day prior to euthanasia (for a total of 100 to 101 doses). Female rats are not treated. All animals are observed twice daily for moribundity and mortality. Clinical observations are recorded daily for male rats; body weights and food consumption are recorded for males twice weekly. All males are euthanized 1 day following the last dose administration. Spermatogenic endpoint evaluations conducted on all males include motility and morphology and epididymal sperm concentration. Testes, epididymis, prostate and seminal vesicle/coagulating gland/fluid from all males are weighed and retained. Testes, epididymis, prostate, seminal vesicles and coagulating glands from surviving males are examined microscopically. A laparohysterectomy is performed on Gestation Day 15 for each female with evidence of mating. An additional 3, 18, 18, and 18 males assigned to the toxicokinetic phase are given the compound at doses of 0, 3, 30, and 1000 mg/kg, respectively, and are sampled for toxicokinetic evaluation at appropriate intervals following dose administration on Study Days 0 and 70."}, "[7]": {"system": "Orx rats", "experiment": "Orchidectomized Rat Assay", "type": "in vivo", "conditions": "for SV Weight, % Sham: once daily 2 months"}, "[8]": {"system": "dogs", "experiment": "6 month treatment of dogs (Table 10)", "type": "in vivo, dog", "conditions": "6 months"}, "[9]": {"system": "LnCAP human prostate cancer cells", "experiment": "LnCAP Gene Expression", "type": "cell-based"}}, "note": "Like-named read-outs stand apart in the source and are kept apart here."}
{"compound": "CC(C)OC(=O)N[C@H]1Cc2c(n(Cc3ccccn3)c3ccc(C#N)cc23)C1", "note": "(single isomer, unassigned) [Example 1]", "values": [{"measurement": "Change from Baseline for P1NP, Comparison to Placebo Difference", "setting": "[1]; 1 mg, day 14", "result": -2.40, "unit": "µg/L"}, {"measurement": "Change from Baseline for Procollagen Type I N Propeptide (P1NP), LS Mean", "setting": "[1]; 1 mg, day 14", "result": -3.55, "unit": "µg/L"}, {"measurement": "Change from Baseline for P1NP, Comparison to Placebo Difference", "setting": "[1]; 1 mg, day 28", "result": 1.49, "unit": "µg/L"}, {"measurement": "Change from Baseline for Procollagen Type I N Propeptide (P1NP), LS Mean", "setting": "[1]; 1 mg, day 28", "result": 0.16, "unit": "µg/L"}, {"measurement": "Change from Baseline for P1NP, Comparison to Placebo Difference", "setting": "[1]; 1 mg, day 35", "result": -2.26, "unit": "µg/L"}, {"measurement": "Change from Baseline for Procollagen Type I N Propeptide (P1NP), LS Mean", "setting": "[1]; 1 mg, day 35", "result": -5.70, "unit": "µg/L"}, {"measurement": "Change from Baseline for P1NP, Comparison to Placebo Difference", "setting": "[1]; 5 mg, day 14", "result": 3.27, "unit": "µg/L"}, {"measurement": "Change from Baseline for Procollagen Type I N Propeptide (P1NP), LS Mean", "setting": "[1]; 5 mg, day 14", "result": 2.11, "unit": "µg/L"}, {"measurement": "Change from Baseline for P1NP, Comparison to Placebo Difference", "setting": "[1]; 5 mg, day 28", "result": 4.20, "unit": "µg/L"}, {"measurement": "Change from Baseline for Procollagen Type I N Propeptide (P1NP), LS Mean", "setting": "[1]; 5 mg, day 28", "result": 2.88, "unit": "µg/L"}, {"measurement": "Change from Baseline for P1NP, Comparison to Placebo Difference", "setting": "[1]; 5 mg, day 35", "result": 1.13, "unit": "µg/L"}, {"measurement": "Change from Baseline for Procollagen Type I N Propeptide (P1NP), LS Mean", "setting": "[1]; 5 mg, day 35", "result": -2.31, "unit": "µg/L"}, {"measurement": "Change from Baseline for P1NP, Comparison to Placebo Difference", "setting": "[1]; 15 mg, day 14", "result": 2.49, "unit": "µg/L"}, {"measurement": "Change from Baseline for Procollagen Type I N Propeptide (P1NP), LS Mean", "setting": "[1]; 15 mg, day 14", "result": 1.34, "unit": "µg/L"}, {"measurement": "Change from Baseline for P1NP, Comparison to Placebo Difference", "setting": "[1]; 15 mg, day 28", "result": 3.41, "unit": "µg/L"}, {"measurement": "Change from Baseline for Procollagen Type I N Propeptide (P1NP), LS Mean", "setting": "[1]; 15 mg, day 28", "result": 2.09, "unit": "µg/L"}, {"measurement": "Change from Baseline for P1NP, Comparison to Placebo Difference", "setting": "[1]; 15 mg, day 35", "result": 0.03, "unit": "µg/L"}, {"measurement": "Change from Baseline for Procollagen Type I N Propeptide (P1NP), LS Mean", "setting": "[1]; 15 mg, day 35", "result": -3.41, "unit": "µg/L"}, {"measurement": "Change from Baseline for P1NP, Comparison to Placebo Difference", "setting": "[1]; 25 mg, day 14", "result": -0.92, "unit": "µg/L"}, {"measurement": "Change from Baseline for Procollagen Type I N Propeptide (P1NP), LS Mean", "setting": "[1]; 25 mg, day 14", "result": -2.07, "unit": "µg/L"}, {"measurement": "Change from Baseline for P1NP, Comparison to Placebo Difference", "setting": "[1]; 25 mg, day 28", "result": 2.75, "unit": "µg/L"}, {"measurement": "Change from Baseline for Procollagen Type I N Propeptide (P1NP), LS Mean", "setting": "[1]; 25 mg, day 28", "result": 1.43, "unit": "µg/L"}, {"measurement": "Change from Baseline for P1NP, Comparison to Placebo Difference", "setting": "[1]; 25 mg, day 35", "result": 0.47, "unit": "µg/L"}, {"measurement": "Change from Baseline for Procollagen Type I N Propeptide (P1NP), LS Mean", "setting": "[1]; 25 mg, day 35", "result": -2.97, "unit": "µg/L"}, {"measurement": "Change from Baseline for P1NP, Comparison to Placebo Difference", "setting": "[1]; 75 mg, day 14", "result": -3.81, "unit": "µg/L"}, {"measurement": "Change from Baseline for Procollagen Type I N Propeptide (P1NP), LS Mean", "setting": "[1]; 75 mg, day 14", "result": -4.96, "unit": "µg/L"}, {"measurement": "Change from Baseline for P1NP, Comparison to Placebo Difference", "setting": "[1]; 75 mg, day 28", "result": 2.81, "unit": "µg/L"}, {"measurement": "Change from Baseline for Procollagen Type I N Propeptide (P1NP), LS Mean", "setting": "[1]; 75 mg, day 28", "result": 1.48, "unit": "µg/L"}, {"measurement": "Change from Baseline for P1NP, Comparison to Placebo Difference", "setting": "[1]; 75 mg, day 35", "result": 2.35, "unit": "µg/L"}, {"measurement": "Change from Baseline for Procollagen Type I N Propeptide (P1NP), LS Mean", "setting": "[1]; 75 mg, day 35", "result": -1.09, "unit": "µg/L"}, {"measurement": "hematocrit", "setting": "[2]", "result": "no significant changes"}, {"measurement": "prostate specific antigen (PSA)", "setting": "[2]", "result": "no significant changes"}, {"measurement": "NOAEL at 52 weeks", "setting": "[3]; both sexes, oral, daily capsule, 52 weeks", "result": 100, "unit": "mg/kg"}, {"measurement": "Cmax", "setting": "[3]; female, females, 100 mg/kg, after 361 days of dosing", "result": 1880, "unit": "ng/mL"}, {"measurement": "AUC(0-t)", "setting": "[3]; female, females, 100 mg/kg, after 361 days of dosing, read-out: AUC0-24 h", "result": 31500, "unit": "ng·h/mL"}, {"measurement": "AUC(0-t)", "setting": "[3]; male, dogs, 12 months, 3 mg/kg/day, read-out: Male group mean AUC0-24 hr near termination", "result": 3620, "unit": "ng·h/mL"}, {"measurement": "Cmax", "setting": "[3]; male, males, 100 mg/kg, after 361 days of dosing", "result": 1500, "unit": "ng/mL"}, {"measurement": "survival until the scheduled sacrifice", "setting": "[4]; 3, 10, 100 mg/kg", "result": "All animals survived"}, {"measurement": "Accumulation after multiple dosing", "setting": "[4]; dogs, 3 to 100 mg/kg", "result": "observed"}, {"measurement": "predicted human bioavailability", "setting": "[5]", "result": 49, "unit": "%"}, {"measurement": "allometrically predicted human clearance", "setting": "[5]; 90% CI 24 to 46", "result": 33, "unit": "Uh"}, {"measurement": "mating, fertility, and copulation indices", "setting": "[6]; 1000 mg/kg group males", "result": "lower"}, {"measurement": "increase of mean exposure (AUC0-24 hr) between 3 and 30 mg/kg", "setting": "[6]; Day 0", "result": "approximately 7.8 fold"}, {"measurement": "increase of mean exposure (AUC0-24 hr) between 3 and 30 mg/kg", "setting": "[6]; Day 70", "result": "~4.5", "unit": "fold"}, {"measurement": "Mean body weights, body weight gains, and food consumption", "setting": "[6]; all dosage levels", "result": "unaffected"}, {"measurement": "Intrauterine survival of the embryos", "setting": "[6]; males dosed 3, 30, 1000 mg/kg", "result": "unaffected"}, {"measurement": "LV-TA (cm2) ± SD", "setting": "[7]; 1 mg/Kg/d", "result": "0.3378 ± 7.08E−03", "unit": "cm2"}, {"measurement": "LV-TBMC (mg) ± SD", "setting": "[7]; 1 mg/Kg/d", "result": "1.54 ± 0.0256", "unit": "mg"}, {"measurement": "LV-TBMD (mg/cm3) ± SD", "setting": "[7]; 1 mg/Kg/d", "result": "507.4 ± 6.931", "unit": "mg/cm3"}, {"measurement": "SV Weight, % Sham", "setting": "[7]; 1 mg/Kg/d po", "result": 5.6, "unit": "% Sham"}, {"measurement": "LV-TA (cm2) ± SD", "setting": "[7]; 3 mg/Kg/d", "result": "0.362 ± 0.0138 ^ cm2"}, {"measurement": "LV-TBMC (mg) ± SD", "setting": "[7]; 3 mg/Kg/d", "result": "1.79 ± 0.095", "unit": "mg"}, {"measurement": "LV-TBMD (mg/cm3) ± SD", "setting": "[7]; 3 mg/Kg/d", "result": "549 ± 15.965", "unit": "mg/cm3"}, {"measurement": "SV Weight, % Sham", "setting": "[7]; 3 mg/Kg/d po", "result": 5.5, "unit": "% Sham"}, {"measurement": "LV-TA (cm2) ± SD", "setting": "[7]; 10 mg/Kg/d", "result": "0.3521 ± 0.0125 ^ cm2"}, {"measurement": "LV-TBMC (mg) ± SD", "setting": "[7]; 10 mg/Kg/d", "result": "1.7757 ± 0.0607", "unit": "mg"}, {"measurement": "LV-TBMD (mg/cm3) ± SD", "setting": "[7]; 10 mg/Kg/d", "result": "562.843 ± 16.104", "unit": "mg/cm3"}, {"measurement": "SV Weight, % Sham", "setting": "[7]; 10 mg/Kg/d po", "result": 6.0, "unit": "% Sham"}, {"measurement": "LV-TA (cm2) ± SD", "setting": "[7]; 20 mg/Kg/d", "result": "0.3563 ± 0.0102 ^ cm2"}, {"measurement": "LV-TBMD (mg/cm3) ± SD", "setting": "[7]; 20 mg/Kg/d", "result": "529.357 ± 10.052", "unit": "mg/cm3"}, {"measurement": "SV Weight, % Sham", "setting": "[7]; 20 mg/Kg/d po", "result": 6.1, "unit": "% Sham"}, {"measurement": "Prostate weight (mean % decrease)", "setting": "[8]; 3 mg/kg/day", "result": "↓ 63%"}, {"measurement": "Prostate weight (mean % decrease)", "setting": "[8]; 30 mg/kg/day", "result": "↓ 66%"}, {"measurement": "Prostate weight (mean % decrease)", "setting": "[8]; 300 mg/kg/day", "result": "↓ 75%"}, {"measurement": "EC50", "setting": "[9]; Homo sapiens, LNCaP, AR gene, read-out: LnCAP Gene Expression EC50 (nM) AR", "result": 1.64, "unit": "nM"}, {"measurement": "androgenicity in vitro in human prostate cancer cells", "setting": "[9]; comparison with R1881", "result": "less androgenic than R1881"}]}
